The numbers were not newly measured in US5045530A, “Pharmaceutical preparations” (priority 1986, dated 1991), which cites them from elsewhere.

The conditions of the data set: in vivo; cited from earlier work.

For the substance polymyxin B, the plasma half life was 4.5 h.
